In data set [1] the test system is Salmonella typhimurium. Description: Ames test averaged in revertants/plate with Salmonella Typhimurium TA1538 at 1.0 mg/plate. It counts as functional, Salmonella enterica subsp. enterica serovar Typhimurium. A general note: The Ames test detects mutagens through reverse mutation in bacteria.
Data set [2] relates to Salmonella typhimurium. Description: Ames test averaged in revertants/plate with Salmonella Typhimurium TA98 at 0.25 mg/plate. It counts as functional, Salmonella enterica subsp. enterica serovar Typhimurium.
Data set [3] has as its system Salmonella typhimurium. Description: Ames test averaged in revertants/plate with Salmonella Typhimurium TA98 at 1.0 mg/plate. In kind it is functional, Salmonella enterica subsp. enterica serovar Typhimurium.
In data set [4] the test system is Salmonella typhimurium. Description: Ames test averaged in revertants/plate with Salmonella Typhimurium TA1538 at 0.25 mg/plate. In kind it is functional, Salmonella enterica subsp. enterica serovar Typhimurium.
Data set [5] relates to Salmonella typhimurium. Description: Ames test averaged in revertants/plate with Salmonella Typhimurium TA98 at 0.13 mg/plate. It counts as functional, Salmonella enterica subsp. enterica serovar Typhimurium.
Data set [6] relates to Salmonella typhimurium. The data set can be described thus: Ames test averaged in revertants/plate with Salmonella Typhimurium TA98 at 0.50 mg/plate. In kind it is functional, Salmonella enterica subsp. enterica serovar Typhimurium.
In data set [7] the test system is Salmonella typhimurium. Description: Ames test averaged in reverts/plate with Salmonella Typhimurium TA1538 at 0.13 mg/plate. In kind it is functional, Salmonella enterica subsp. enterica serovar Typhimurium.
Data set [8] deals with Salmonella typhimurium. The data set can be described thus: Ames test averaged in revertants/plate with Salmonella Typhimurium TA1538 at 0.50 mg/plate. It counts as functional, Salmonella enterica subsp. enterica serovar Typhimurium.
Data set [9] can be described thus: Partition coefficient (logP). Particulars: octanol/water. In kind it is physicochemical.
In data set [10] the test system is Salmonella typhimurium. Description: Ames test averaged in revertants/plate with Salmonella Typhimurium TA1538 at 0.13 mg/plate. It counts as functional, Salmonella enterica subsp. enterica serovar Typhimurium.
The subject of data set [11] is Salmonella typhimurium. Description: Ames test averaged in revertants/plate with Salmonella Typhimurium TA1538 at 0.5 mg/plate. It counts as functional, Salmonella enterica subsp. enterica serovar Typhimurium.
Data set [12] has as its system Salmonella typhimurium. Description: Ames test averaged in revertants/plate with Salmonella Typhimurium TA1538 at 2.5 mg/plate. In kind it is functional, Salmonella enterica subsp. enterica serovar Typhimurium.
In data set [13] the test system is Salmonella typhimurium. The data set can be described thus: Ames test averaged in revertants/plate with Salmonella Typhimurium TA98 at 2.5 mg/plate. It counts as functional, Salmonella enterica subsp. enterica serovar Typhimurium.
The test system of data set [14] is Salmonella typhimurium. Description: Ames test averaged in revertants/plate with Salmonella Typhimurium TA98 at 0.1 mg/plate. It counts as functional, Salmonella enterica subsp. enterica serovar Typhimurium.
The test system of data set [15] is Salmonella typhimurium. Description: Ames test averaged in revertants/plate with Salmonella Typhimurium TA1538 at 0.1 mg/plate. In kind it is functional, Salmonella enterica subsp. enterica serovar Typhimurium.
Data set [16] concerns Salmonella typhimurium. Description: Ames test averaged in revertants/plate with Salmonella Typhimurium TA1538 at 5 mg/plate. In kind it is functional, Salmonella enterica subsp. enterica serovar Typhimurium.
Data set [17] has as its system Salmonella typhimurium. Description: Ames test averaged in revertants/plate with Salmonella Typhimurium TA98 at 5 mg/plate. It counts as functional, Salmonella enterica subsp. enterica serovar Typhimurium.
Data set [18] relates to Salmonella typhimurium. The data set can be described thus: Ames test averaged in revertants/plate with Salmonella Typhimurium TA98 at 0.5 mg/plate. It counts as functional, Salmonella enterica subsp. enterica serovar Typhimurium.

Regarding `CC(=O)Nc1ccc2c(c1)S(=O)(=O)c1ccccc1-2`, the Revertants/plate stood at 2 in data set [1]; 0 in [2]; 4 in data set [3]; 0 in data set [4]; 0 in [5]; 2 in data set [6]. Moreover, the Revertants/plate in data set [7] is 0; in data set [8] it was 2.
What is called logP is the decadic logarithm of the partition coefficient of the neutral form, usually between octanol and water. Read a low logP as a more hydrophilic compound. Consider `CCc1ccc2c(c1)C(=O)c1ccc(NC(C)=O)cc1S2(=O)=O`, for which the Revertants/plate in [1] was 2; in data set [2] it was 0; in data set [3] it was 0; in data set [4], 0; in data set [5], 0; in data set [6] it was 0. Further, the Revertants/plate in data set [10] and in data set [8] was 1 in each case. The compound also came in with a logP in data set [9] of 3.44.
On to `CC(=O)Nc1ccc2c(c1)S(=O)(=O)c1ccc(C)cc1C2=O`, for which the Revertants/plate amounted to 5 in [1]; 0 in data set [2]; 8 in data set [3]; 2 in data set [4]; 1 in [5]; 0 in data set [6]. The Revertants/plate in [10] and in [8] was 0 each time. In data set [9], this compound came in with a logP of 2.76.
As for `CCCc1ccc2c(c1)C(=O)c1ccc(NC(C)=O)cc1S2(=O)=O`, the Revertants/plate in [1], in data set [2], in data set [3], in data set [4], in data set [5] and in [6] was 0 in each case. The Revertants/plate in data set [10] and in data set [8] was 0 throughout. In data set [9], this compound returned a logP of 3.51.
For the compound `CC(=O)Nc1ccc2c(c1)S(=O)(=O)c1ccccc1C2=O`, the Revertants/plate in [11], in data set [12], in data set [13], in data set [14], in data set [15] and in data set [16] was 0 throughout. The Revertants/plate in data set [17] and in [18] was 0 each time. The same compound showed a logP in data set [9] of 2.35.
Regarding `CC(=O)Nc1ccc2c(c1)[nH]c1ccccc12`, the Revertants/plate in data set [1] turned out to be 775; in data set [2], 732; in [3] it was 456; in data set [4], 762; in [5], 725; in data set [6], 468. Moreover, the Revertants/plate in data set [10] was found to be 679; in [8], 699. Also, in data set [9], the logP was determined as 3.02.

(Values after ChEMBL document CHEMBL1121482, “Prevention of Ames test mutagenicity by chemical modification in a series of monoamine oxidase inhibitors” (J Med Chem, 1980).)
